Experimental data reported in PubChem BioAssay AID248 (DTP/NCI, 2004).
Where “and” joins values, the source holds several entries; their conditions need not be identical. Equal entries are not always repeated. Inconclusive results and toxic doses are left out. Cut-off read from the data, not from the text of the source: active = T/C of 150% or more; inactive = T/C below 125%.

Tested on: L1210 leukemia ip in BDF1 mice, survival T/C
Experiment: NCI In Vivo Anticancer Drug Screen. Data for tumor model L1210 Leukemia (intraperitoneal) in B6D2F1 (BDF1) mice
Conditions: endpoint: mean survival time, higher = longer survival
Summary of the method: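 In this screen, tumor-bearing mice given compound are compared to those given vehicle, and their survival values are reported as a treated-to-control quotient.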

[1] = dose: 100.0 mg/kg/injection, schedule: Q01DX001 (ip), vehicle: saline
[2] = dose: 100.0 mg/kg/injection, schedule: Q01DX009 (ip), vehicle: saline
[3] = dose: 100.0 mg/kg/injection, schedule: Q04DX002 (ip), vehicle: saline
[4] = dose: 100.0 mg/kg/injection, schedule: Q04DX003 (ip), vehicle: saline
[5] = dose: 200.0 mg/kg/injection, schedule: Q01DX001 (ip), vehicle: saline
[6] = dose: 200.0 mg/kg/injection, schedule: Q01DX009 (ip), vehicle: saline
[7] = dose: 200.0 mg/kg/injection, schedule: Q04DX002 (ip), vehicle: saline
[8] = dose: 200.0 mg/kg/injection, schedule: Q04DX003 (ip), vehicle: saline
[9] = dose: 400.0 mg/kg/injection, schedule: Q04DX002 (ip), vehicle: saline
[10] = dose: 400.0 mg/kg/injection, schedule: Q04DX003 (ip), vehicle: saline
[11] = dose: 100.0 mg/kg/injection, schedule: Q04DX003 (ip), vehicle: Klucel (hydroxypropylcellulose) (HPC)
[12] = dose: 200.0 mg/kg/injection, schedule: Q04DX003 (ip), vehicle: Klucel (hydroxypropylcellulose) (HPC)
[13] = dose: 400.0 mg/kg/injection, schedule: Q04DX003 (ip), vehicle: Klucel (hydroxypropylcellulose) (HPC)
[14] = dose: 100.0 mg/kg/injection, schedule: Q01DX001 (ip), vehicle: Klucel (hydroxypropylcellulose) (HPC)
[15] = dose: 100.0 mg/kg/injection, schedule: Q01DX001 (ip), vehicle: carboxymethylcellulose (CMC)
[16] = dose: 200.0 mg/kg/injection, schedule: Q01DX001 (ip), vehicle: carboxymethylcellulose (CMC)
[17] = dose: 400.0 mg/kg/injection, schedule: Q01DX001 (ip), vehicle: carboxymethylcellulose (CMC)
[18] = dose: 50.0 mg/kg/injection, schedule: Q01DX009 (ip), vehicle: saline
[19] = dose: 100.0 mg/kg/injection, schedule: Q01DX009 (ip), vehicle: Klucel (hydroxypropylcellulose) (HPC)
[20] = dose: 200.0 mg/kg/injection, schedule: Q01DX009 (ip), vehicle: Klucel (hydroxypropylcellulose) (HPC)

Measured: T/C

CC(C)CCN
inactive: [1] 115 % of control | [2] 98 % of control and 104 % of control | [3] 102 % of control and 103 % of control | [4] 98 % of control | [5] 112 % of control | [6] 107 % of control and 112 % of control | [7] 103 % of control and 108 % of control | [8] 98 % of control | dose: 400.0 mg/kg/injection, schedule: Q01DX001 (ip), vehicle: saline 107 % of control | dose: 400.0 mg/kg/injection, schedule: Q01DX009 (ip), vehicle: saline 114 % of control and 117 % of control | [9] 101 % of control and 102 % of control | [10] 112 % of control

O=C(Cc1ccccc1)Nc1ccc(Cl)c(Cl)c1
inactive: dose: 100.0 mg/kg/injection, schedule: Q04DX002 (ip), vehicle: Klucel (hydroxypropylcellulose) (HPC) 100 % of control | dose: 200.0 mg/kg/injection, schedule: Q04DX002 (ip), vehicle: Klucel (hydroxypropylcellulose) (HPC) 100 % of control | dose: 400.0 mg/kg/injection, schedule: Q04DX002 (ip), vehicle: Klucel (hydroxypropylcellulose) (HPC) 96 % of control

O=C1NOCC1N=Cc1ccccc1O (stereo unspecified)
inactive: [11] 102 % of control | [12] 98 % of control | [13] 101 % of control

CCC(CS(=O)(=O)O)[N+](=O)[O-] (stereo unspecified)
inactive: [3] 96 % of control | [7] 96 % of control | [9] 107 % of control

CC1(C)CCC2=C(O1)c1ccccc1C(=O)C2=O
inactive: dose: 25.0 mg/kg/injection, schedule: Q01DX001 (ip), vehicle: Klucel (hydroxypropylcellulose) (HPC) 102 % of control | dose: 50.0 mg/kg/injection, schedule: Q01DX001 (ip), vehicle: Klucel (hydroxypropylcellulose) (HPC) 98 % of control | [14] 94 % of control and 102 % of control

O=C(O)CC1COc2ccccc2O1 (stereo unspecified)
inactive: [15] 91 % of control | [16] 105 % of control | [17] 94 % of control

CNc1n[n+](-c2ccccc2)no1
inactive: dose: 25.0 mg/kg/injection, schedule: Q01DX009 (ip), vehicle: saline 93 % of control | dose: 25.0 mg/kg/injection, schedule: Q04DX003 (ip), vehicle: saline 111 % of control | [18] 109 % of control | dose: 50.0 mg/kg/injection, schedule: Q04DX003 (ip), vehicle: saline 104 % of control | [4] 97 % of control and 101 % of control

CC(C)CCCC(C)C1CCC2C3CC=C4CC(OC(=O)CCCC5CCCCC5)CCC4(C)C3CCC12C (stereo unspecified)
inactive: [11] 94 % of control | [12] 94 % of control | [13] 94 % of control

BrC1(Br)CC1(c1ccccc1)c1ccccc1
inactive: [19] 93 % of control | [11] 107 % of control | [4] 107 % of control | [20] 97 % of control | [12] 107 % of control | [8] 107 % of control | dose: 400.0 mg/kg/injection, schedule: Q01DX009 (ip), vehicle: Klucel (hydroxypropylcellulose) (HPC) 101 % of control | [13] 97 % of control | [10] 97 % of control

Cc1ccc(S(=O)(=O)N/N=C2/C(=N/NS(=O)(=O)c3ccc(C)cc3)c3cccc4cccc2c34)cc1
inactive: dose: 75.0 mg/kg/injection, schedule: Q01DX001 (ip), vehicle: carboxymethylcellulose (CMC) 91 % of control | dose: 150.0 mg/kg/injection, schedule: Q01DX001 (ip), vehicle: carboxymethylcellulose (CMC) 91 % of control | dose: 300.0 mg/kg/injection, schedule: Q01DX001 (ip), vehicle: carboxymethylcellulose (CMC) 88 % of control

CCOC(C)C(/C=N/NC(N)=S)=NNC(N)=S (stereo unspecified)
inactive: dose: 15.0 mg/kg/injection, schedule: Q01DX010 (ip), vehicle: saline 95 % of control | dose: 15.0 mg/kg/injection, schedule: Q01DX Z (ip), vehicle: carboxymethylcellulose (CMC) 101 % of control | dose: 30.0 mg/kg/injection, schedule: Q01DX010 (ip), vehicle: saline 89 % of control | dose: 30.0 mg/kg/injection, schedule: Q01DX Z (ip), vehicle: carboxymethylcellulose (CMC) 95 % of control | dose: 60.0 mg/kg/injection, schedule: Q01DX010 (ip), vehicle: saline 92 % of control | dose: 60.0 mg/kg/injection, schedule: Q01DX Z (ip), vehicle: carboxymethylcellulose (CMC) 100 % of control and 102 % of control | dose: 60.0 mg/kg/injection, schedule: Q01DX Z (oral), vehicle: carboxymethylcellulose (CMC) 100 % of control | dose: 120.0 mg/kg/injection, schedule: Q01DX Z (ip), vehicle: carboxymethylcellulose (CMC) 93 % of control and 103 % of control | dose: 120.0 mg/kg/injection, schedule: Q01DX Z (oral), vehicle: carboxymethylcellulose (CMC) 106 % of control | dose: 240.0 mg/kg/injection, schedule: Q01DX Z (oral), vehicle: carboxymethylcellulose (CMC) 93 % of control

O=C(O)c1c(F)c(F)c(-c2c(F)c(F)c(F)c(F)c2F)c(F)c1F
inactive: dose: 100.0 mg/kg/injection, schedule: Q01DX001 (ip), vehicle: saline with Tween-80 86 % of control | dose: 200.0 mg/kg/injection, schedule: Q01DX001 (ip), vehicle: saline with Tween-80 91 % of control

O=C1c2ccccc2C(=O)c2c(Nc3ccc(S(=O)(=O)N(CCO)CCO)cc3)ccc(O)c21
inactive: [1] 97 % of control | [5] 100 % of control

CCOC(=O)c1cn(C2OC(COC(=O)c3ccccc3)C(OC(=O)c3ccccc3)C2OC(=O)c2ccccc2)c(=O)nc1Nc1ccccc1Br (stereo unspecified)
inactive: dose: 100.0 mg/kg/injection, schedule: Q01DX005 (ip), vehicle: saline 97 % of control | dose: 200.0 mg/kg/injection, schedule: Q01DX005 (ip), vehicle: saline 97 % of control

O=c1c2ccccc2sc2c1ccc1ccccc12
inactive: [11] 100 % of control | [12] 103 % of control | [13] 96 % of control

CCC(O)c1ccc2ccccc2c1 (stereo unspecified)
inactive: [15] 98 % of control | [16] 98 % of control | [17] 93 % of control

CC1(C)CS(=O)(=O)CC(C)(C)C(=O)C1=O
inactive: [14] 108 % of control

Oc1ccc2nocc2c1N=Nc1ccccc1
inactive: dose: 50.0 mg/kg/injection, schedule: Q01DX009 (ip), vehicle: saline with Tween-80 98 % of control | dose: 100.0 mg/kg/injection, schedule: Q01DX009 (ip), vehicle: saline with Tween-80 98 % of control | dose: 200.0 mg/kg/injection, schedule: Q01DX009 (ip), vehicle: saline with Tween-80 95 % of control

COc1ccc(CC(N)C(=O)O)cc1 (stereo unspecified)
inactive: [19] 103 % of control | [11] 101 % of control | [20] 92 % of control | [12] 101 % of control | [13] 106 % of control

COc1cc(C)c2c(c1)C(=O)OC2=O
inactive: [14] 105 % of control | [11] 100 % of control | dose: 200.0 mg/kg/injection, schedule: Q01DX001 (ip), vehicle: Klucel (hydroxypropylcellulose) (HPC) 108 % of control | [12] 103 % of control | dose: 400.0 mg/kg/injection, schedule: Q01DX001 (ip), vehicle: Klucel (hydroxypropylcellulose) (HPC) 111 % of control | [13] 97 % of control

Fc1c(F)c(F)c(Oc2c(F)c(F)c(P(c3c(F)c(F)c(Oc4c(F)c(F)c(F)c(F)c4F)c(F)c3F)c3c(F)c(F)c(Oc4c(F)c(F)c(F)c(F)c4F)c(F)c3F)c(F)c2F)c(F)c1F
inactive: dose: 75.0 mg/kg/injection, schedule: Q04DX003 (ip), vehicle: Klucel (hydroxypropylcellulose) (HPC) 104 % of control | dose: 150.0 mg/kg/injection, schedule: Q04DX003 (ip), vehicle: Klucel (hydroxypropylcellulose) (HPC) 91 % of control | dose: 300.0 mg/kg/injection, schedule: Q04DX003 (ip), vehicle: Klucel (hydroxypropylcellulose) (HPC) 90 % of control

O=C1C=Cc2ccccc2C1=O
inactive: dose: 0.78 mg/kg/injection, schedule: Q01DX001 (ip), vehicle: Klucel (hydroxypropylcellulose) (HPC) 103 % of control | dose: 1.56 mg/kg/injection, schedule: Q01DX001 (ip), vehicle: Klucel (hydroxypropylcellulose) (HPC) 95 % of control | dose: 3.13 mg/kg/injection, schedule: Q01DX001 (ip), vehicle: Klucel (hydroxypropylcellulose) (HPC) 88 % of control

c1ccc(C2C(c3ccccc3)N2CCNC2=NCCN2)cc1 (stereo unspecified)
inactive: dose: 12.5 mg/kg/injection, schedule: Q01DX009 (ip), vehicle: Klucel (hydroxypropylcellulose) (HPC) 91 % of control | dose: 25.0 mg/kg/injection, schedule: Q01DX009 (ip), vehicle: Klucel (hydroxypropylcellulose) (HPC) 102 % of control | dose: 50.0 mg/kg/injection, schedule: Q01DX009 (ip), vehicle: Klucel (hydroxypropylcellulose) (HPC) 91 % of control

O=c1sc(N=Nc2ccccc2)nn1-c1ccccc1
inactive: [18] 91 % of control | [2] 88 % of control | [6] 93 % of control
